One data set relates to SF-126. The data set is described as follows: Induction of DNA damage in human SF-126 cells harboring wild type MTAP assessed as increase in gammaH2AX level at 0.1 to 10 uM measured for 96 hrs by immunofluorescence analysis. Type of data set: functional, cell-based. The note with it: dose 0.1-10 µM.
The test system of data set [1] is MIA PaCa-2. The data set can be described thus: Antiproliferative activity against MTAP null human MIA PaCa-2 cells assessed as inhibition of cell viability measured for 96 hrs by SRB assay. Type of data set: functional, cell-based.
Data set [2] addresses S-adenosylmethionine synthase isoform type-2 (Mus musculus) (UniProt Q3THS6). The data set is described as follows: Inhibition of MAT2A in MTAP null mouse B16-F10 cells assessed as reduction in SAM level measured for 4 hrs by immunoblotting analysis. The note with it: dose <= 1.0 µM. Type of data set: cell-based.
Data set [3] addresses S-adenosylmethionine synthase isoform type-2 (Homo sapiens, UniProt P31153). The data set can be described thus: Inhibition of MAT2A (unknown origin) using L-methionine and ATP as substrate preincubated with compound for 10 mins followed by substrate addition and measured after 60 mins by kinase-glo max reagent based microplate reader analysis.
A short description of data set [4]: Bioavailability in male ICR mouse at 1 mg/kg measured upto 36 hrs by LC-MS/MS analysis. Type of data set: ADME, organism-based. To be noted: in vivo.
Data set [5] in a line: Plasma protein binding in human assessed as unbound fraction. Type of data set: ADME, cell-free.
Data set [6] concerns Daoy. The data set is described as follows: Antiproliferative activity against MTAP null human Daoy cells assessed as inhibition of cell viability measured for 96 hrs by SRB assay. Type of data set: functional, cell-based.
Data set [7] relates to B16-F10. The data set is described as follows: Antitumor activity against MTAP-knockout mouse B16-F10 cells implanted in mouse assessed as reduction in tumor volume at 30 to 60 mg/kg, po administered for 10 days and measured after 12 days. Type of data set: functional, organism-based. To be noted: dose 30-60 mg/kg, time 22.0 day.
For data set [8], the system named is MIA PaCa-2. The data set is described as follows: Antitumor activity against MTAP null human MIA PaCa-2 cells xenografted in mouse assessed as inhibition of SAM production in tumor at 30 to 60 mg/kg, po measured after 28 days. To be noted: dose 30-60 mg/kg, time 28.0 day. Type of data set: functional, organism-based.
Data set [9] has as its target S-adenosylmethionine synthase isoform type-2 (Mus musculus) (UniProt Q3THS6). The data set is described as follows: Inhibition of MAT2A in mouse B16-F10 cells assessed as reduction in SAM level measured for 4 hrs by immunoblotting analysis. Type of data set: cell-based. To be noted: dose <= 1.0 µM.
The subject of the next data set is MDA-MB-231. The data set can be described thus: Antiproliferative activity against MTAP null human MDA-MB-231 cells assessed as inhibition of cell viability measured for 96 hrs by SRB assay. Type of data set: functional, cell-based.
The test system of data set [10] is MIA PaCa-2. The data set is described as follows: Antitumor activity against MTAP null human MIA PaCa-2 cells xenografted in mouse assessed as inhibition of SAM production in plasma at 30 to 60 mg/kg, po measured after 28 days. Type of data set: functional, organism-based. The note with it: dose 30-60 mg/kg, time 28.0 day.
Another data set has as its target Cytochrome P450 2D6 (Homo sapiens, UniProt P10635). The data set can be described thus: Inhibition of CYP2D6 in human liver microsomes using dextromethorphan as substrate incubated for 10 mins in presence of NADPH by LC-MS/MS analysis. Type of data set: ADME, Microsome.
The next data set concerns the target Cytochrome P450 2C19 (Homo sapiens, UniProt P33261). The data set is described as follows: Inhibition of CYP2C19 in human liver microsomes using S-mephenytoin as substrate incubated for 10 mins in presence of NADPH by LC-MS/MS analysis. Type of data set: ADME, Microsome.
Data set [11] concerns Daoy. The data set can be described thus: Antitumor activity against human Daoy cells xenografted in mouse assessed as tumor growth inhibition at 30 mg/kg, po measured after 28 days. Type of data set: functional, organism-based. The note with it: time 28.0 day.
Data set [12] concerns B16-F10. The data set is described as follows: Antitumor activity against MTAP-knockout mouse B16-F10 cells implanted in mouse assessed as reduction in SAM level in plasma at 30 to 60 mg/kg, po administered for 10 days and measured after 12 hrs. Type of data set: functional, organism-based. To be noted: dose 30-60 mg/kg, time 10.5 day.
Data set [13] is described as follows: Cmax in male ICR mouse at 10 mg/kg, po measured upto 36 hrs by LC-MS/MS analysis. Type of data set: ADME, organism-based. To be noted: in vivo.
A short description of data set [14]: Half life in male ICR mouse at 1 mg/kg, iv measured upto 36 hrs by LC-MS/MS analysis. Type of data set: ADME, organism-based. The note with it: in vivo.
Data set [15] deals with Voltage-gated inwardly rectifying potassium channel KCNH2 (Homo sapiens, UniProt Q12809). The data set is described as follows: Inhibition of hERG expressed in CHO cells incubated for 12 hrs by Qpatch assay. Type of data set: toxicity, cell-based.

Calls of active or inactive are those of the source. No cut-off for these calls is given here.

S-adenosylmethionine synthase isoform type-2 (Mus musculus), sequence (Q3THS6 whole entry, canonical isoform): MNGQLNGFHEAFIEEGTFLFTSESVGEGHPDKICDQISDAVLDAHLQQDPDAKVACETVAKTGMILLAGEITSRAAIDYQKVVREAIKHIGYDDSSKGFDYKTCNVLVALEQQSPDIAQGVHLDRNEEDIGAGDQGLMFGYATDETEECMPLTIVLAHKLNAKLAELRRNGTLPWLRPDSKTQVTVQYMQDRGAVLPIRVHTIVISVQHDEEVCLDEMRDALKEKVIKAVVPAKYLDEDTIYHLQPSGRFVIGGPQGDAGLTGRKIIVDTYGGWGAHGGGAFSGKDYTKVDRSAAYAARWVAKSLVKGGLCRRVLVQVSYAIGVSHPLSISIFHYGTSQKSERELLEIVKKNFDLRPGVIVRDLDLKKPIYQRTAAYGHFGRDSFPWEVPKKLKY
Cytochrome P450 2D6, sequence (P10635 whole entry): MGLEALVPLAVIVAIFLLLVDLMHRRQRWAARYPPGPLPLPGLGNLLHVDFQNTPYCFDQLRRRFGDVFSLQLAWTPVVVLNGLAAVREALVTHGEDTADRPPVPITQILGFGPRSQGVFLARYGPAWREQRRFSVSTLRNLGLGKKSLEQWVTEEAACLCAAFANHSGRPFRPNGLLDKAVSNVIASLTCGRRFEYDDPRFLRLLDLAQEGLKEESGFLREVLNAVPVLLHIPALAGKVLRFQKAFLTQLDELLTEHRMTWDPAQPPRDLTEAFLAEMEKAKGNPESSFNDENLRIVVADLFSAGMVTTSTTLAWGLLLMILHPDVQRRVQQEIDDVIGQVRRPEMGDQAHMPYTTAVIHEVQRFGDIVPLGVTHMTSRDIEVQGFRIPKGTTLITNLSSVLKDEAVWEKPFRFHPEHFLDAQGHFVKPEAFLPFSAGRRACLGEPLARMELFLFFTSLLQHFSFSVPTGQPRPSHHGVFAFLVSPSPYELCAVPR
S-adenosylmethionine synthase isoform type-2, sequence (P31153 whole entry, canonical isoform): as the sequence (Q3THS6 whole entry, canonical isoform) above, with I77V, I87V counted along it
Voltage-gated inwardly rectifying potassium channel KCNH2, sequence (Q12809 whole entry): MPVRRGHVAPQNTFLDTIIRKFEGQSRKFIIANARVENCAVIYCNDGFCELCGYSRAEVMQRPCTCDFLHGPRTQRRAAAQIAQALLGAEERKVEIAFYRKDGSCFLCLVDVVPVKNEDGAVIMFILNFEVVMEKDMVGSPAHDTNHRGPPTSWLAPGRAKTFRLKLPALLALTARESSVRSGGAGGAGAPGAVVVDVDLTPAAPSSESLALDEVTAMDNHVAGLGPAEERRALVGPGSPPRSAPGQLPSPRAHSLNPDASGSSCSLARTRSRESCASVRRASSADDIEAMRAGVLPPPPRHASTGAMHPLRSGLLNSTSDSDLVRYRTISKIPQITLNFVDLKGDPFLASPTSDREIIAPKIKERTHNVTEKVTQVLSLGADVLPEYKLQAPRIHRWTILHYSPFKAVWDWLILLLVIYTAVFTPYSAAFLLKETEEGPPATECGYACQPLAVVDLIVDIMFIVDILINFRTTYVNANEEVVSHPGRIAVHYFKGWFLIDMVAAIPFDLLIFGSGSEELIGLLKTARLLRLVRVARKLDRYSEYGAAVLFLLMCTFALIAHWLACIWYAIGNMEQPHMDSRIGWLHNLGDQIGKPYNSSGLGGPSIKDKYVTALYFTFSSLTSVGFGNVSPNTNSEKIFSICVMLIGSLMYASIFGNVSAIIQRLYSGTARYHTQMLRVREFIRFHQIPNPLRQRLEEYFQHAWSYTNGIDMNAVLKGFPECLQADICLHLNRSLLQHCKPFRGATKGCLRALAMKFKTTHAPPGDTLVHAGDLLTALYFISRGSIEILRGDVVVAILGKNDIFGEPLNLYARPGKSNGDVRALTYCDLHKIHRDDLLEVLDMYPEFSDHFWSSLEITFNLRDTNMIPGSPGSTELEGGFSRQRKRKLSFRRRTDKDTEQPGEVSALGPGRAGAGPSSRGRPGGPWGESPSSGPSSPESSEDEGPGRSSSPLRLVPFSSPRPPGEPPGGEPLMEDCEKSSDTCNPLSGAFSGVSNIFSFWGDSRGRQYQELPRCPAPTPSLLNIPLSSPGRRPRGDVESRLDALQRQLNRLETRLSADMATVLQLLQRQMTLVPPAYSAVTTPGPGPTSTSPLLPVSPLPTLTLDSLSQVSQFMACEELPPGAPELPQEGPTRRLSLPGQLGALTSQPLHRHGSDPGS
Cytochrome P450 2C19, sequence (P33261 whole entry): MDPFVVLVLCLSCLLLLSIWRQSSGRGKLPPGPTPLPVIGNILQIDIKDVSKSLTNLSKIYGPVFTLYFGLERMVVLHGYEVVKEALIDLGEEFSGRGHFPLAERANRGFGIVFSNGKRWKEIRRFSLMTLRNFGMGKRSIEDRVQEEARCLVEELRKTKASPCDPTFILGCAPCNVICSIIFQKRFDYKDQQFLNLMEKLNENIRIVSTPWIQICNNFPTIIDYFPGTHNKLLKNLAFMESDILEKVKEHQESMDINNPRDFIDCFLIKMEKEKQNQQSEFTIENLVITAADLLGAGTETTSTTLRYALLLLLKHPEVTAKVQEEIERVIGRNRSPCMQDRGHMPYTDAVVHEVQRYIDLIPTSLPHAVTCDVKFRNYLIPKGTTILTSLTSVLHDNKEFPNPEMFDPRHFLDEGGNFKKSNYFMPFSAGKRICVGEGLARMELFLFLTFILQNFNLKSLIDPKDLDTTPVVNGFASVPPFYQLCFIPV

Consider `Cn1cnc2ccc(-c3nc4ccc(C5CC5)cc4n(-c4ccc(OC(F)F)cc4)c3=O)cc21`, for which the outcome in the data set with SF-126, with MIA PaCa-2 [1], with Daoy [6], in the data set with B16-F10 [7], in the data set on MIA PaCa-2 [8] and with MDA-MB-231 was Active. Moreover, the outcome in the data set with MIA PaCa-2 [10] and in the data set on B16-F10 [12] was Active. The inhibition entry in data set [2] is “Active”. In addition, the IC50 is 0.049 µM in data set [3], 9.2 µM at Cytochrome P450 2D6, 8.7 µM at Cytochrome P450 2C19 and 38 µM in data set [15]. Further, the bioavailability in data set [4] came out at 118%. In addition, the fraction unbound in [5] was 0.003. For the same molecule, the inhibition entry in data set [9] is “Dose-dependent-effect”. Also, in the data set with Daoy [11], the TGI result was “Active”. Further, in [13], the Cmax is 2600 ng/mL. For the same molecule, the half-life in [14] is 8.43 h.

These data come from ChEMBL document CHEMBL6096692, “Discovery of 2(1H)-Quinoxalinone Derivatives as Potent and Selective MAT2A Inhibitors for the Treatment of MTAP-Deficient Cancers” (J Med Chem, 2025).
